From doi:10.1101/836932v1 (biorxiv, 2019)

Molecular target: T1, MLLT3 (AF9) (Homo sapiens, UniProt P42568)
T1 sequence (P42568 1-138 limits assumed): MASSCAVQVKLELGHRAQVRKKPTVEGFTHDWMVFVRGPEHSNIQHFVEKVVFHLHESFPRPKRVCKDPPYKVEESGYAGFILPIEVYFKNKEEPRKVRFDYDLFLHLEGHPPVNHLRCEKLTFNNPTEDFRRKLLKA
Assay: AlphaScreen
Assay type: binding

Row | SMILES | IC50
1 | O=C(NCc1ccc(CN2CCCC2)cc1)N1CCN(C(=O)c2cccs2)CC1 [compound 2, piperazine-1-carboxamide 2] | 33 µM
2 | CCN(CC)Cc1ccc(CNC(=O)N2CCN(c3ncccn3)CC2)cc1 [compound 3, piperazine-1-carboxamide 3] | > 100 µM
3 | COc1ccc(CNC(=O)N2CCN(c3ccc(C(C)=O)cc3)CC2)cn1 [compound 1, piperazine-1-carboxamide 1] | 7.8 µM
